In PMC3130785, “Small Compound 6-O-Angeloylplenolin Induces Mitotic Arrest and Exhibits Therapeutic Potentials in Multiple Myeloma” (PLoS ONE, 2011):

Key:
pERK1/2 = assay: Western blotting, 6-OAP/BOR; format: cell-based, human; settings: MM.1S; 6-OAP 5 µM for 6 h
Experimental: Cell pellets were lysed in RIPA buffer containing 50 mM Tris pH 8.0, 150 mM NaCl, 0.1% SDS, 0.5% deoxycholate, 1% NP-40, 1 mM DTT, 1 mM NaF, 1 mM sodium vanadate, and protease inhibitors cocktail (Sigma). For immunoprecipitations, cells were lysed on ice for 15 minutes in RIPA buffer. Lysates were centrifuged. The supernatant was incubated with indicated antibodies overnight, after which protein A/G Plus beads (Santa Cruz Biotechnology) were added and incubated for 3 h. The beads were washed 4 times in RIPA buffer. Then the beads were resuspended in 1× sample buffer and boiled for 3 min. Protein extracts were quantitated and loaded on 8% to 12% sodium dodecyl sulfate polyacrylamide gel, electrophoresed, and transferred to a nitrocellulose membrane (Whatman). The membrane was incubated with primary antibody, washed, and incubated with horseradish peroxidase (HRP)–conjugated secondary antibody (Pierce). Detection was performed by using a chemiluminescent western detection kit (Cell Signaling). […]

MM.1S cells = assay: MTT assay with IL-6, IGF-I or BMSCs; format: cell-based, human; settings: 48 h
Experimental: U266, RPMI 8226 cells (1×10^4), primary CD138+ cells, PBMCs (5×10^4), and BMSCs (1×10^4) were cultured in 96-well dishes and incubated without or with 6-OAP at indicated concentration for 48 h. MM.1S and MM.1R cells (2×10^4) were seeded into 96-well dishes and pre-cultured for 24 h, then treated with 6-OAP for 48 h. Cell proliferation was determined by MTT assay. Cell viability was estimated by trypan blue dye exclusion.
Figure 5 6-OAP overcomes the protective effects of IL-6, IGF-I and BMSCs on MM cells. (A and B) MM.1S cells were cultured for 48 h with indicated concentrations of 6-OAP at the presence or absence of IL-6 (A) or IGF-I (B). Cell proliferation was assessed by MTT assay. (C) MM.1S and/or BMSCs cells were cultured for 48 h with indicated concentrations of 6-OAP. Cell proliferation was assessed by MTT assay. *p<.01,** p<.05. (D) MM.1S cells were serum starved for 2 h, then co-cultured without or with 6-OAP at 5 µM for 12 h, followed by stimulation with IL-6 at 10 ng/ml for indicated time points (upper panel), or IL-6 at 10 ng/ml for 1 h, followed by treatment with 6-OAP at indicated concentration for 12 h (lower panel). Whole-cell extracts were prepared and examined by Western blotting using antibodies against pJak2, pStat3, Stat3 or β-actin. (E) MM.1S cells were serum starved for 2 h, then co-cultured without or with 6-OAP (5 µM) for 12 h, followed by stimulation with IGF-I at 50 ng/ml for indicated time points (upper panel), or stimulated with IGF-I at 50 ng/ml for 1 h, followed by treatment with 6-OAP at indicated concentration for 12 h (lower panel). Whole-cell extracts were prepared and examined by western blotting using antibodies against pPDK1, pAkt, Akt or β-actin. (F) MM.1S cells were serum starved for 2 h, then co-cultured without or with 6-OAP (5 µM) for 12 h, followed by stimulation with TNF-α at 5 ng/ml for indicated time points. Whole-cell extracts were prepared and examined by Western blotting using indicated antibodies.

In the case of `CC=C(C)C(=O)OC1C2C(CC(C)C3C=CC(=O)C31C)OC(=O)C2C` (stereo not shown) [6-OAP, 6-O-angeloylplenolin], the “phosphorylated ERK1/2” value (pERK1/2) is reported as “induced an increase in phosphorylated ERK1/2”, the IGF-I-caused cell proliferation (MM.1S cells; IGF-I 10 to 50 ng/ml, 6-OAP 5 to 7.5 µM) is reported as “abolished IGF-I-caused cell proliferation” and the IL-6-promoted proliferation (MM.1S cells; IL-6 2 to 10 ng/ml, 6-OAP 5 to 7.5 µM) is reported as “drastically reversed this effect”. For the same molecule, the “BMSCs-facilitated MM.1S cell expansion” value (MM.1S cells; co-incubation with BMSCs, 6-OAP 5 or 7.5 µM) was “significantly inhibited this effect”.
